“And” between values parts separate entries of the source, which are not always exact repeats. Identical values can stand only once. “Also recorded” adds a separate entry of the source.
Tests used:
[1] = system: neuroblastoma-derived xenografts harboring F1174L, F1245C or R1275Q ALK mutations; details: cited from earlier work
[2] = system: ALK-driven refractory or relapsed neuroblastoma; test: Anti-tumor response: best overall response by NANT response criteria version 2.0; assay type: in vivo, human
From the text: Patients underwent disease staging at baseline, after courses 2 and 4 and then every four courses thereafter. The primary endpoint for response analysis is the BOR, defined as the best response observed before progression or start of another therapy. […] Response was graded according to the NANT response criteria version 2.0 (ref. [26]), modified from the International Neuroblastoma Response Criteria (INRC)[48]. NANT response criteria use three components for assessment of overall response: soft tissue response assessed by anatomical imaging and avidity on MIBG or FDG-PET; bone response assessed by uptake in bone by MIBG or bone involvement on FDG-PET; and bone marrow response assessed by morphology on bilateral aspirates and biopsies. Each response component (soft tissue, bone and bone marrow) are graded as CR, PR, SD and PD. Overall response grading is defined as: CR, if a response of CR in all components that are involved at baseline; PR, if a response of PR or better in all involved components; MR, if a response of PR or better but with at least one involved component as SD and no PD in all involved components; SD, if a response of SD in all involved components; and PD, if a response of PD in at least one involved component. The overall response definitions are identical to overall responses (CR, PR, SD and PD) as defined by the INRC. Response assessment is initially performed by sites and reviewed against source documents by NANT operations. Additional blinded central review of all radiological or pathological data was conducted for patients with overall PR or better and, in addition, radiologic pathological data of all involved sites for patients with MR to assign the final BOR on this study. Response by MIBG was determined using the Curie criteria. RR was determined as the proportion of patients with BOR of CR and PR in each cohort. Based on an international consensus by the National Cancer Institute Clinical Trials Planning Committee to refine tumor site eligibility criteria and evaluation of disease response for early-phase clinical trials in children with high-risk recurrent, refractory and progressive neuroblastoma, we also performed an ad hoc analysis to determine a modified RR that includes the proportion of patients with BOR of CR, PR and MR.

[3] = Cohort A1, Dose Level 1, individual patient
[4] = Cohort A1, Dose Level 3, individual patient
[5] = Cohort A1, Dose Level 4, individual patient
[6] = Cohort A2, Dose Level 3A, individual patient
[7] = Cohort A2, Dose Level 4A, individual patient
[8] = Cohort B2 (with topotecan/cyclophosphamide), DL4
[9] = Cohort B2 (with topotecan/cyclophosphamide), DL5
[10] = Cohort B2, Dose Level 4B, individual patient
[11] = Cohort B2, Dose Level 5B, individual patient

Compound: C[C@H]1Oc2cc(cnc2N)-c2c(nn(C)c2C#N)CN(C)C(=O)c2ccc(F)cc21 [Lorlatinib, (10R)-7-amino-12-fluoro-2,10,16-trimethyl-15-oxo-10,15,16,17-tetrahydro-2H-8,4-(metheno)pyrazolo[4,3-h][2,5,11]-benzoxadiazacyclotetradecine-3-carbonitrile]
- anti-tumor doses lower than crizotinib ([1]; ALK-driven neuroblastoma pre-clinical models in vivo): 10–30 fold
- effect on xenograft tumors ([1]; crizotinib-resistant and sensitive xenografts): complete tumor regression
- patients with PD before or by the end of course 2 ([2]; <18 years, MYCN-amplified/ALK-mutated neuroblastoma (6/7), cohort A1): 86%
- CR, patients ([2]; Cohort A1 (N= 23), Total): 1
- MR, patients ([2]; Cohort A1 (N= 23), Total): 4
- PD, patients ([2]; Cohort A1 (N= 23), Total): 12
- PR, patients ([2]; Cohort A1 (N= 23), Total): 2
- CR+PR Rate ([2]; Cohort A1, DL1): 1/3
- CR+PR+MR Rate ([2]; Cohort A1, DL1): 2/3
- CR, patients ([2]; Cohort A1, DL1): 0
- MR, patients ([2]; Cohort A1, DL1): 1
- PD, patients ([2]; Cohort A1, DL1): 1
- PR, patients ([2]; Cohort A1, DL1): 1
- CR+PR Rate ([2]; Cohort A1, DL2): 0/2
- CR+PR+MR Rate ([2]; Cohort A1, DL2): 0/2
- CR, patients ([2]; Cohort A1, DL2): 0
- MR, patients ([2]; Cohort A1, DL2): 0
- PD, patients ([2]; Cohort A1, DL2): 2
- PR, patients ([2]; Cohort A1, DL2): 0
- CR+PR Rate ([2]; Cohort A1, DL3): 0/3
- CR+PR+MR Rate ([2]; Cohort A1, DL3): 0/3
- CR, patients ([2]; Cohort A1, DL3): 0
- MR, patients ([2]; Cohort A1, DL3): 0
- PD, patients ([2]; Cohort A1, DL3): 2
- PR, patients ([2]; Cohort A1, DL3): 0
- CR+PR Rate ([2]; Cohort A1, DL4): 0/9
- CR+PR+MR Rate ([2]; Cohort A1, DL4): 2/9
- CR, patients ([2]; Cohort A1, DL4): 0
- MR, patients ([2]; Cohort A1, DL4): 2
- PD, patients ([2]; Cohort A1, DL4): 5
- PR, patients ([2]; Cohort A1, DL4): 0
- CR+PR Rate ([2]; Cohort A1, DL5): 2/6
- CR+PR+MR Rate ([2]; Cohort A1, DL5): 3/6
- CR, patients ([2]; Cohort A1, DL5): 1
- MR, patients ([2]; Cohort A1, DL5): 1
- PD, patients ([2]; Cohort A1, DL5): 2
- PR, patients ([2]; Cohort A1, DL5): 1
- Course Best overall response is achieved [2, 3]: 14 and 2
- Patient status at end of course [2, 3]: Off therapy
- Course Best overall response is achieved ([2]; Cohort A1, Dose Level 2, individual patient): 2
- Course Best overall response is achieved [2, 4]: 2
- Patient status at end of course [2, 4]: Off therapy
- Course Best overall response is achieved [2, 5]: 2
- Patient status at end of course [2, 5]: Off therapy
- Course Best overall response is achieved ([2]; Cohort A1, Dose Level 5, individual patient): 4 and 6 and 2
- CR, patients ([2]; Cohort A2 (N=15), Total): 4
- MR, patients ([2]; Cohort A2 (N=15), Total): 3
- PD, patients ([2]; Cohort A2 (N=15), Total): 1
- PR, patients ([2]; Cohort A2 (N=15), Total): 3
- CR+PR Rate ([2]; Cohort A2, 100 mg): 2/5
- CR+PR+MR Rate ([2]; Cohort A2, 100 mg): 3/5
- CR, patients ([2]; Cohort A2, 100 mg): 0
- MR, patients ([2]; Cohort A2, 100 mg): 1
- PD, patients ([2]; Cohort A2, 100 mg): 1
- PR, patients ([2]; Cohort A2, 100 mg): 2
- CR+PR Rate ([2]; Cohort A2, 150 mg): 5/10
- CR+PR+MR Rate ([2]; Cohort A2, 150 mg): 7/10
- CR, patients ([2]; Cohort A2, 150 mg): 4
- MR, patients ([2]; Cohort A2, 150 mg): 2
- PD, patients ([2]; Cohort A2, 150 mg): 0
- PR, patients ([2]; Cohort A2, 150 mg): 1
- Course Best overall response is achieved [2, 6]: 6 and 2
- Patient status at end of course [2, 6]: Off therapy
- Course Best overall response is achieved [2, 7]: 4 and 10 and 6 and 2 and 1
- Patient status at end of course [2, 7]: Ongoing therapy; also recorded: Off therapy
- CR, patients ([2]; Cohort B2 (N=8), Total): 1
- MR, patients ([2]; Cohort B2 (N=8), Total): 3
- PD, patients ([2]; Cohort B2 (N=8), Total): 3
- PR, patients ([2]; Cohort B2 (N=8), Total): 1
- CR+PR Rate [2, 8]: 1/2
- CR+PR+MR Rate [2, 8]: 1/2
- CR, patients [2, 8]: 1
- MR, patients [2, 8]: 0
- PD, patients [2, 8]: 1
- PR, patients [2, 8]: 0
- CR+PR Rate [2, 9]: 1/6
- CR+PR+MR Rate [2, 9]: 4/6
- CR, patients [2, 9]: 0
- MR, patients [2, 9]: 3
- PD, patients [2, 9]: 2
- PR, patients [2, 9]: 1
- Course Best overall response is achieved [2, 10]: 2
- Patient status at end of course [2, 10]: Off therapy
- Course Best overall response is achieved [2, 11]: 2
- Patient status at end of course [2, 11]: Ongoing therapy; also recorded: Off therapy
- RR (BOR of CR or PR) ([2]; cohort A1 (3/23)): 13%
- median time to BOR ([2]; cohort A1, 11 of 23 patients with SD or better): two
- patients pre-treated with ALK TKI achieving MR or SD ([2]; cohort A1, four of nine): 44%
- modified RR (BOR of CR/PR/MR) ([2]; cohort A1, single agent, <18 years): 30%
- RR (BOR of CR/PR) ([2]; cohort A2 (7/15)): 47%
- median time to BOR ([2]; cohort A2, 14 of 15 patients with SD or better): four
- modified RR (BOR of CR/PR/MR) ([2]; cohort A2, single agent, ≥18 years): 67%
- responses in patients with prior ALK TKI ([2]; cohort A2, three of five): 60%
- median time to BOR of SD or better ([2]; cohort B2): two
- RR (BOR of CR/PR) ([2]; cohort B2 (2/8), with topotecan/cyclophosphamide): 25%
- patients with MYCN amplification achieving a PR ([2]; cohort B2, lorlatinib plus topotecan/cyclophosphamide): two of three
- modified RR (BOR of CR/PR/MR) ([2]; cohort B2, with topotecan/cyclophosphamide, <18 years): 63% and 62%
- Course when BOR obtained ([2]; individual patients with prior ALK inhibitor, Cohort A1, Dose Level 1): 2
- Course when BOR obtained ([2]; patients with prior ALK inhibitor, Cohort A1, Dose Level 1): 2
- Course when BOR obtained ([2]; patients with prior ALK inhibitor, Cohort A1, Dose Level 2): 2
- Course when BOR obtained ([2]; patients with prior ALK inhibitor, Cohort A1, Dose Level 3): 2
- Course when BOR obtained ([2]; patients with prior ALK inhibitor, Cohort A1, Dose Level 4): 2
- Course when BOR obtained ([2]; patients with prior ALK inhibitor, Cohort A1, Dose Level 5): 2
- Course when BOR obtained ([2]; patients with prior ALK inhibitor, Cohort A2, Dose Level 3A): 2
- Course when BOR obtained ([2]; patients with prior ALK inhibitor, Cohort B2, Dose Level 4B): 2
- Course when BOR obtained ([2]; patients with prior ALK inhibitor, Cohort B2, Dose Level 5B): 2 and 1
- Course when BOR obtained ([2]; prior ALK inhibitor, Cohort A1, Dose Level 2): 2
- Course when BOR obtained ([2]; prior ALK inhibitor, Cohort A1, Dose Level 3): 2
- Course when BOR obtained ([2]; prior ALK inhibitor, Cohort A1, Dose Level 4): 2
- Course when BOR obtained ([2]; prior ALK inhibitor, Cohort A1, Dose Level 5): 2
- Course when BOR obtained ([2]; prior ALK inhibitor, Cohort B2, Dose Level 4): 2
- Course when BOR obtained ([2]; prior ALK inhibitor, Cohort B2, Dose Level 5): 2 and 1

From publication PMC10202811 (Nature Medicine, 2023)
